Entries after “also recorded” stand apart in the source; their conditions may differ.
Assays:
[1] = system: M. avium; assay: MIC against CF bacterial strains (Example 5); assay type: cell-based, Mycobacterium avium
Procedure: A range of CF-isolated strains of Mycobacterium avium and Mycobacterium abscessus were included; which allows for understanding of the activity against non-tubercular Mycobacteria (NTM). Two distinct bismuth-thiol compounds were evaluated, including BisEDT and BisBDT. […] The CF-isolates of greater clinical relevance, including both M abscessus spp. and Burkholderia spp., were both consistently found to be much more susceptible to BisEDT and BisBDT.

[2] = system: anaerobes; assay: Agar dilution MIC (Example 11); assay type: cell-based; conditions: read-out: MIC values
[3] = system: C. tropicalis; assay: Broth microdilution MIC, yeast (Example 11); assay type: cell-based; conditions: Candida tropicalis, FLU^R
[4] = system: E. faecium; assay: Broth microdilution MIC (Example 11); conditions: Enterococcus faecium, VRE, VRE vanA Lev^R Cip^R Ery^R
[5] = system: Pseudomonas aeruginosa; assay: Broth microdilution MIC (Example 12)
[6] = system: fully differentiated human airway epithelium (MUCILAIR™); assay: Acute toxicity on […] (LDH release, TEER, morphology); assay type: cell-based
Procedure: Controlled in vitro evaluation of BisEDT, with respect to potential cytotoxicity on fully differentiated human airway epithelium was carried out. Both solubilized and solid (powder/particulate) forms of BisEDT were evaluated for cytotoxicity by Epithelix, a contract research organization (CRO) specializing in this form of cytotoxicity evaluation utilizing a proprietary, in vitro fully differentiated human airway epithelium test system ([…]™) The […]™ system facilitated evaluation of cytotoxicity through both LDH release (from the culture medium side) and trans-epithelial electrical resistance (TEER) from the apical/air-exposed side as well as pre- and post-exposure microscopic examination for morphological changes (FIG. 13).
The assay system used in this study is Epithelix's proprietary technology […]™ […]™ is a fully differentiated and ready-to-use 3D model of human airway epithelium, constituted with primary human epithelial cells freshly isolated from nasal, tracheal or bronchial biopsies. […]™ (FIG. 24), is not only morphologically and functionally differentiated, but can also be maintained in a homeostatic state for a long period of time (Huang et al., 2009).
[…]™ is composed of basal cells, ciliated cells and mucus cells. The proportion of these various cell types is preserved compared to what one observes in vivo (Huang et al., 2011). Moreover the epithelia are started from de-differentiated cells. The cells undergo a progressive differentiation with time. After 45 days of culture, the epithelia are fully ciliated, secret mucus and are electrically tight (TEER>200 Ω.cm^2). The activity of the main epithelial ionic channels, such as CFTR, EnaC, Na/K ATPase, is preserved and the epithelia is shown to respond in a regulated and vectorial manner to the pro-inflammatory stimulus, TNF-α (Huang et al., 2011). A large panel of cytokines, chemokines and metalloproteinases has been detected in […]™ (e.g. IL-8, IL-6, GM-CSF, MMP-9, GRO-α).
BisEDT (MB-1-B3) was applied on the apical surface of […]™ during 1, 8, 24 and 48 hours (FIG. 13). The effect of 6 concentrations was studied: 0.001, 0.01, 0.1, 1, 10 and 30 μM. […] 30 μl solution at the selected concentration was applied on the apical surface of […]™. The negative control corresponds to the vehicle solution (0 μM) and untreated cultures. The positive control corresponds to 50 μl to 10% Triton X-100 diluted in a buffered saline solution. The study was run in triplicates.
During the study, inserts were maintained in a CO2 incubator (37° C., 5% CO2, 100% humidity). The following end-points were determined: • Tissue integrity monitoring: Trans-Epithelial Electrical Resistance (TEER) measurement (quantitative) at D0, D1 and D2. • Cytotoxicity monitoring: LDH test (quantitative) at D0, D1 and D2. • Morphology: cellular and tissue integrity examined under contrast microscope at D0, D1 and D2.
Three days before the experiment, the following quality controls were performed on each epithelium: • Washing: inserts were washed with 200 μl of […]™ culture medium. Washing removes accumulated mucus on the tissue surface which may interfere with the test. • Trans-Epithelial Electrical Resistance (TEER): TEER was measured to verify that all the selected inserts had tight epithelial barriers and the tissue itself was not disrupted prior to application of the test material. • Tissue morphology: each insert was inspected under a conventional inverted microscope to ensure the quality of the epithelia and determine qualitatively that cilia motion was visible. The presence of mucus was detected by the refractive aspect of the apical surface. Results
Compound BisEDT was applied on the apical surface of […]™. The effect of 5 concentrations after 1, 8,24 and 48 hours exposure was studied: 0.033, 0.33, 3.33, 33.3, 333 μg/cm^2. […]

[7] = system: Escherichia coli; conditions: E. coli MMX 102 (ATCC 25922); CLSI QC ranges shown in parenthesis; cited from earlier work
[8] = system: Pseudomonas aeruginosa; conditions: P. aeruginosa MMX 103 (ATCC 27853); CLSI QC ranges shown in parenthesis; cited from earlier work
[9] = system: Burkholderia spp.; assay: organism not typed; assay type: cell-based; conditions: during FIC testing; B. multivorans isolate 1795 (MEM-I, CIP-R)
[10] = solid, 0.033 and 0.33 μg/cm^2, all tested time points
[11] = solution, all tested concentrations and time points

Work on `CC(S)C(C)S.[Bi]` (centres unmarked) [BisBDT, bismuth-2,3-butanedithiol] yielded an MIC ([1]; Mycobacterium avium) of over 16 µg/mL, an MIC ([1]; strain MAC101, MAC reference strain, blood isolate from HIV patient) of 1 µg/mL and an MIC [2] of 1 to 4 µg/mL. The MIC ([3]; 24 h, C. tropicalis MMX 7247) was 4 µg/mL, the MIC ([3]; 24 h, C. tropicalis MMX 7248) was 4 µg/mL and the MIC ([3]; 24 h, C. tropicalis MMX 7360) was 2 µg/mL. For the same compound, the MIC ([3]; 48 h, C. tropicalis MMX 7247) was 4 µg/mL, the MIC ([3]; 48 h, C. tropicalis MMX 7248) was 8 µg/mL and the MIC ([3]; 48 h, C. tropicalis MMX 7360) was 2 µg/mL. It also gave an MIC ([4]; E. faecium MMX 485) of 0.5 µg/mL, an MIC ([4]; E. faecium MMX 752) of 1 µg/mL and an MIC ([5]; Pseudomonas aeruginosa, ATCC27853, P. aeruginosa ATCC 27853, QC organism) of 1 µg/mL. For the same compound, the MIC ([5]; Pseudomonas aeruginosa, P. aeruginosa CDC 230, VIM/OXA) was 2 µg/mL, the MIC ([5]; Pseudomonas aeruginosa, P. aeruginosa CDC 231, KPC/OXA) was 2 µg/mL and the MIC ([5]; Pseudomonas aeruginosa, P. aeruginosa CDC 241, IMP/OXA) was 8 µg/mL. For the same compound, the MIC ([5]; Pseudomonas aeruginosa, P. aeruginosa CDC 246, NDM/OXA) was 2 µg/mL, the MIC ([5]; Pseudomonas aeruginosa, P. aeruginosa CDC 250, NDM/OXA) was 2 µg/mL and the MIC ([5]; Pseudomonas aeruginosa, P. aeruginosa CDC 356, KPC) was 1 µg/mL. It also gave an MIC ([5]; Pseudomonas aeruginosa, P. aeruginosa CDC 439, IMP) of 1 µg/mL, an MIC ([5]; Pseudomonas aeruginosa, P. aeruginosa CDC 444, VIM) of 1 µg/mL and an MIC ([5]; Pseudomonas aeruginosa, P. aeruginosa CDC 457, VIM) of 2 µg/mL. It also gave an MIC ([5]; Pseudomonas aeruginosa, P. aeruginosa CDC 516, KPC/AmpC) of 1 µg/mL and an MIC ([5]; Pseudomonas aeruginosa, P. aeruginosa CDC 518, KPC/AmpC) of 1 µg/mL.

For `C1C[S][Bi]([S]CC[S][Bi]2[S]CC[S]2)[S]1` [BisEDT, bismuth-1,2-ethanedithiol], the “toxic effects (morphology, LDH release, TEER), BisEDT in solution” value ([6]; 0.001-30 μM (30 uM = 20.83 ug/mL) apical, 1, 8, 24, 48 hours) was “no toxic effects were observed; also recorded: no local toxicity”, the “toxic effects (morphology, LDH release, TEER), particulate BisEDT in dextran” value ([6]; lower two concentrations (0.033, 0.33 μg/cm^2), up to 48 hours) was “no toxic effects were observed” and the “TEER (tissue integrity)” value ([6]; solid, 1 μg/cm^2, 8, 24 and 48H) was “Loss of tissue integrity”. For the same compound, the “LDH release (cytotoxicity)” value ([6]; solid, 1 μg/cm^2, 8, 24 and 48 h) was “time- and dose-dependent cytotoxicity”, the “LDH release (cytotoxicity)” value ([6]; solid, 1 μg/cm^2, 1 hour) was “No significant effect” and the “TEER (tissue integrity)” value ([6]; solid, 1 μg/cm^2, 1 hour) was “no significant effect”. The Morphology after exposure ([6]; solid, 1 μg/cm^2, 1 hour and 8 hour) was “no important morphological changes were observed”, the Morphology after exposure ([6]; solid, 1 μg/cm^2, 24 h) was “epithelial cells on 2 inserts out of 3 were dead” and the Morphology after exposure ([6]; solid, 1 μg/cm^2, 48 h) was “epithelial cells on all 3 inserts were dead”. The Morphology after exposure ([6]; solid, 3.33 μg/cm^2, 24 and 48 h) was “Cells were rounded and opaque at the periphery of inserts”, the Morphology after exposure ([6]; solid, 0.033 and 0.33 μg/cm^2) was “No morphological modifications were observed” and the “LDH release (cytotoxicity)” value [6, 10] was “No significant effect”. For the same compound, the “TEER (tissue integrity)” value [6, 10] was “No significant effect”, the “cytotoxicity (LDH increase, TEER reduction)” value ([6]; solid, 1 and 3.33 μg/cm^2, 24 h and 48 h) was “induces cytotoxicity” and the “LDH release (cytotoxicity)” value ([6]; solid, 3.3, 33.3 and 333 μg/cm^2, beyond 1 hour) was “time and dose dependent increase in LDH release; also recorded: time and dose dependent, cytotoxicity”. For the same compound, the “TEER (tissue integrity)” value ([6]; solid, 3.33, 33.3 and 333 μg/cm^2, 8, 24 and 48H exposure) was “Loss of tissue integrity”, the “toxicity (LDH, TEER, morphology)” value ([6]; solid, 33.3, 333 μg/cm^2) was “strong toxicity” and the Morphology after exposure ([6]; solid, 33.3 and 333 μg/cm^2, 8, 24 and 48 h) was “Cells were rounded and opaque on the inserts”. For the same compound, the “TEER (tissue integrity)” value ([6]; solid, all tested doses, 1 hour exposure) was “no significant effect”, the Morphology after exposure [6, 11] was “No morphology changes were observed” and the “TEER (tissue integrity)” value [6, 11] was “didn't show significant effect”. The “LDH release (cytotoxicity)” value ([6]; solution, all tested concentrations and time-points) was “not altered”.

In the case of `C[C@@H](O)[C@H]1C(=O)N2C(C(=O)O)=C(S[C@@H]3CN[C@H](C(=O)N(C)C)C3)[C@H](C)[C@H]12` [Meropenem, reference compound], the “CLSI QC range of MIC” value [7] is listed as “(0.008-0.06) μg/mL” and the “CLSI QC range of MIC” value [8] is listed as “(0.25-1) μg/mL”.

Work on `C[C@@H](O)[C@H]1C(=O)N2C(C(=O)O)=C(S[C@@H]3CN[C@H](C(=O)N(C)C)C3)[C@H](C)[C@H]12` [MEM] yielded an MIC [9] of 4 µg/mL, an MIC ([5]; P. aeruginosa CDC 230, VIM/OXA) of over 8 µg/mL and an MIC ([5]; P. aeruginosa CDC 231, KPC/OXA) of over 8 µg/mL. For the same compound, the MIC ([5]; P. aeruginosa CDC 241, IMP/OXA) was over 8 µg/mL, the MIC ([5]; P. aeruginosa CDC 246, NDM/OXA) was over 8 µg/mL and the MIC ([5]; P. aeruginosa CDC 250, NDM/OXA) was over 8 µg/mL. For the same compound, the MIC ([5]; P. aeruginosa CDC 356, KPC) was over 8 µg/mL, the MIC ([5]; P. aeruginosa CDC 439, IMP) was over 8 µg/mL and the MIC ([5]; P. aeruginosa CDC 444, VIM) was over 8 µg/mL. The MIC ([5]; P. aeruginosa CDC 457, VIM) was over 8 µg/mL, the MIC ([5]; P. aeruginosa CDC 516, KPC/AmpC) was over 8 µg/mL and the MIC ([5]; P. aeruginosa CDC 518, KPC/AmpC) was over 8 µg/mL.

From patent US11464749B2, “Bismuth-thiol compositions and methods of use” (Microbion Corporation, priority 2018, dated 2022)
